The target of assay [1] is T1, Sodium/glucose cotransporter 2 (Homo sapiens, UniProt P31639).
T1 sequence (P31639 whole entry): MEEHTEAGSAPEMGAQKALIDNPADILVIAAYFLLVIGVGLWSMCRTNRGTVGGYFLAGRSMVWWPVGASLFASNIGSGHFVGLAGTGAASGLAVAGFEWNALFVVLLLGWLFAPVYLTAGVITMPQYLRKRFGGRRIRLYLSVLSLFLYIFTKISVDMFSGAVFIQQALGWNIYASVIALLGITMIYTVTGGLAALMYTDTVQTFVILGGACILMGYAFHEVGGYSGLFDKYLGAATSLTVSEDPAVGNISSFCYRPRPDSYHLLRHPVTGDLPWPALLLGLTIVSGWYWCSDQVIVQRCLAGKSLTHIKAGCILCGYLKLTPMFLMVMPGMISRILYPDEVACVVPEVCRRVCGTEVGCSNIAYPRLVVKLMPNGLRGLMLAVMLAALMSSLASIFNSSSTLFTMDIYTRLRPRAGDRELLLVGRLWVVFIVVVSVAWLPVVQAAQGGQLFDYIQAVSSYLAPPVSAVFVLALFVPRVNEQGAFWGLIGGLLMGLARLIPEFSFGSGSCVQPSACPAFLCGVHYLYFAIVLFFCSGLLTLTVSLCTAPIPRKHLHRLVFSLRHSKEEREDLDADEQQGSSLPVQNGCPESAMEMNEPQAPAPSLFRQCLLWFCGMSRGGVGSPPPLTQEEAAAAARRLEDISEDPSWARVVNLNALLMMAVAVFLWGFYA
Put plainly: Inhibition of SGLT2 (unknown origin).

In assay [2] the test system is Platelet. As to the kind of experiment: Antiplatelet activity in rabbit platelet rich plasma assessed as inhibition of ADP-induced platelet aggregation at 0.1 mM preincubated for 5 mins followed by ADP addition measured up to 5 mins. Format: functional. As to conditions: Oryctolagus cuniculus.
The test system of assay [3] is Platelet. As to the kind of experiment: Antiplatelet activity in rabbit platelet rich plasma assessed as inhibition of ADP-induced platelet aggregation at 0.1 mM preincubated for 5 mins followed by ADP addition measured up to 5 mins in presence of NO scavenger carboxy-PTIO. Format: functional. The following applies: Oryctolagus cuniculus.
Assay [4] deals with Mus musculus. Put plainly: Antidiabetic activity in ICR mouse assessed as increase in urinary glucose excretion by measuring urine glucose levels at 20 mg/kg, po administered 30 mins prior to glucose challenge measured after 120 mins. The format is functional.
Assay [5] concerns Mus musculus. As to the kind of experiment: Antihyperglycemic activity in fasting ICR mouse assessed as decrease in plasma glucose AUC (0 to 120 mins) at 20 mg/kg, po administered 30 mins prior to glucose challenge measured after 120 mins by OGTT relative to control. The format is functional. Set-up: scale not given: the % may be the effect or the level left.
In assay [6] the test system is Mus musculus. As to the kind of experiment: Antidiabetic activity in ICR mouse assessed as increase in urinary glucose excretion by measuring urine glucose levels at 20 mg/kg, po administered 30 mins prior to glucose challenge measured after 60 mins. Format: functional.
Assay [7] relates to Mus musculus. As to the kind of experiment: Antidiabetic activity in ICR mouse assessed as increase in urinary glucose excretion by measuring urine glucose levels at 20 mg/kg, po administered 30 mins prior to glucose challenge measured after 15 mins. The format is functional.
Assay [8] has as its system Mus musculus. Put plainly: Antidiabetic activity in ICR mouse assessed as increase in urinary glucose excretion by measuring urine glucose levels at 20 mg/kg, po administered 30 mins prior to glucose challenge measured after 30 mins. The format is functional.

As to `CCc1ccc(Cc2ccc3c(c2)[C@]2(OC3)O[C@H](CO)[C@@H](O)[C@H](O)[C@H]2O)cc1` [TOFOGLIFLOZIN ANHYDROUS], the IC50 in assay [1] amounted to 4 nM.

`CCOc1ccc(Cc2cc([C@@H]3S[C@H](CO)[C@@H](O)[C@H](O)[C@H]3O)c(OC)cc2C)cc1` [LUSEOGLIFLOZIN]: 2.3 nM corresponded to half-maximal inhibition in assay [1] (IC50).

As to `O=[N+]([O-])OCCOc1ccc(Cc2cc([C@@H]3O[C@H](CO)[C@@H](O)[C@H](O)[C@H]3O)ccc2Cl)cc1`, the inhibition at 100 µM in assay [2] stood at 11.6%.

In the case of `OC[C@H]1O[C@@H](c2ccc(F)c(Cc3cc4ccccc4s3)c2)[C@H](O)[C@@H](O)[C@@H]1O` [IPRAGLIFLOZIN], half-maximal inhibition in assay [1] (IC50) was put at 8.4 nM.

As to `O=[N+]([O-])OCCCCOc1ccc(Cc2cc([C@@H]3O[C@H](CO)[C@@H](O)[C@H](O)[C@H]3O)ccc2Cl)cc1`, the inhibition at 100 µM in assay [2] stood at 14.1%.

In the case of `O=[N+]([O-])OCCCOc1ccc(Cc2cc([C@@H]3O[C@H](CO)[C@@H](O)[C@H](O)[C@H]3O)ccc2Cl)cc1`, the inhibition at 100 µM in assay [3] worked out at 3.64%; in assay [2], 14.4%. Besides, the Activity was 500 mg/dL in assay [4]; 26.3% in assay [5]; 1000 mg/dL in assay [6]; 500 mg/dL in assay [7]; 2000 mg/dL in assay [8].

For the origin of these results see ChEMBL document CHEMBL4229423 (Bioorg Med Chem, 2018).
